Entries after “also recorded” stand apart in the source; their conditions may differ. Like-named read-outs stand apart in the source and are kept apart here.
Columns and labels:
FimH = FimH (Escherichia coli, UniProt Q1R2J4); conditions: Examples 30-36 numbering;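 further: hemagglutination inhibition of guinea pig erythrocytes agglutinated by type 1 piliated uropathogenic E. coli via FimH mannose binding, quantified through serial dilutions of compound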
UTI89 [1] = test: Enumeration of bladder IBCs by LacZ staining in infected mice; type: in vivo, E. coli (UPEC); host C3H/HeN mouse; conditions: UTI89 pre-incubated with mannoside (as little as 10 μM); 6 hpi
Description: After invasion, UPEC are able to rapidly replicate to form IBCs, thus dramatically expanding in numbers. After maturation of the IBC, bacteria are able to disperse from the biomass and spread to neighboring cells to expand the buildup in bacterial numbers via next generation IBC. The ability of mannosides to block IBC formation was evaluated based on LacZ staining of whole mount bladders, a protocol developed to enumerate IBCs. Whole bladder titers were also determined by quantifying colony forming units (CFUs) at 6 hours post-infection and later time points as test compounds were further developed.
(§1) Enumeration of bladder IBCs. For bacterial pretreatment experiments, mannoside was added to the bacterial suspension and incubated for 20 min. For animal pretreatment experiments, mannoside ZFH-2056 was administered either IP (5 mg/kg) or orally (100 mg/kg) 30 min prior to inoculation with UTI89. To accurately count the number of IBCs, mice were sacrificed 6 hpi and bladders were aseptically removed, bisected, splayed on silicone plates and fixed in 2% paraformaldehyde (v/v). IBCs, readily discernable as punctate violet spots, were quantified by LacZ staining of whole bladders.
as §1, with “For” for “Enumeration of bladder IBCs. For bacterial pretreatment experiments, mannoside was added to the bacterial suspension and incubated for 20 min. For”

UTI89 [2] = test: Mouse UTI model, bladder bacterial titers (CFU); type: in vivo, E. coli (UPEC); host C3H/HeN mouse; conditions: UTI89; 6 hpi; mannoside IP 30 min prior and/or TMP-SMZ 3 days in drinking water
Description: For mannoside treatment, bacteria were incubated with 1 mM ZFH56 prior to inoculation. Every 24 h for 3 days, mice were transurethrally inoculated with 1 mM ZFH56. For antibiotic treatment, mice were inoculated with UTI89 and immediately given antibiotics in the drinking water for 3 days. Antibiotics used were trimethoprim-sulfamethoxazole (SXT) at […], respectively. For dual treatment, bacteria were incubated with 1 mM ZFH56 prior to inoculation. Every 24 h for 3 days, mice were transurethrally inoculated with 1 mM ZFH56. Additionally, mice were immediately given antibiotics in the drinking water for 3 days as in the antibiotic only treatment. Urine was collected every day for 13 days. At 2 weeks, mice were sacrificed and bladders were titered.
UTI89 biofilm was grown in LB+/− mannoside for 24 h at 22° C. in PVC plates and quantitated using crystal violet. UTI89 biofilm for confocal microscopy was grown in LB for 24 h at 22° C. on PVC coverslips. Mannoside was then added and biofilm was grown for an additional 16 h. Coverslips were then washed in PBS, fixed in 2% paraformaldehyde and stained with SYTO9 prior to confocal microscopy. For all animal experiments UTI89 or PBC-1 was grown 2×24 h statically in LB at 37° C. and inoculated at a dose of 1×10^7 bacteria in 50 μl. All mice used were female C3H/HeN (Jackson). For the pretreatment studies, bacteria were incubated with mannoside for 20 min prior to inoculation into the mouse. […] For CFU counts, bladders were harvested at 6 hpi and placed in 1 mL PBS. Bladders were then homogenized, diluted and plated on LB. After growth at 37° C. overnight, bacterial counts were determined. LacZ staining and gentamicin protection assays were performed at 6 hpi. […] Water was changed daily with fresh antibiotics. Standard growth curve assays and hemagglutination assays were performed with TMP-SMZ. All statistical analysis performed was a two-tailed Mann-Whitney U test.
Animal infections. Bacteria were grown under type 1 pili-inducing conditions (2×24 h at 37° C. statically in LB). The bacteria were harvested and resuspended to an OD600 of 0.5 in PBS. Eight-week-old C3H/HeN (Harlan) female mice were anesthetized by inhalation of isoflurane and infected via transurethral catheterization with 50 μl of the bacterial suspension, resulting in 1-2×10^7 inoculum. At 6 hpi, mice were sacrificed by cervical dislocation under anesthesia and the bladders were immediately harvested and processed as described below. All animal studies using mice were approved by the Animal Studies Committee of Washington University (Animal Protocol Number 20100002).
Bladder tissue bacterial titer determination. Mannoside ZFH-2056 was administered either IP (5 mg/kg) or orally (100 mg/kg) 30 min prior to inoculation with UTI89. […]

PBC-1 = test: Growth curve / MIC determination in LB; type: cell-based, E. coli (UPEC); conditions: 100 μM mannoside, varying TMP-SMZ
Description: Growth curve. […] Mannoside ZFH-2056 was added at 100 μM. Growth curves were performed in a 96-well plate at 37° C. with A600 readings taken every 30 min for 8 h.
Mannoside 6 was added at 100 μM. Growth curves were performed in a 96-well plate at 37° C. with A600 readings taken every 30 min for 8 h. Minimum inhibitory concentration (MIC) was calculated as the lowest concentration of antibiotic that prevented growth of the bacterial strain.

Compound | HAI Titer EC>90 (FimH; Table 17) | HAI Titer EC>90 (FimH; Table 20) | IBC formation (UTI89 [1]) | bladder bacterial CFUs (UTI89 [2]) | effect on efficacy of TMP-SMZ killing in vitro (PBC-1)
COC(=O)c1cccc(-c2ccc(O[C@H]3O[C@H](CO)[C@@H](O)[C@H](O)[C@@H]3O)cc2)c1 [Compound 1, phenyl mannoside, reference compound] | 1.00 µM | 1.000 µM |  |  | 
CNC(=O)c1cc(C(=O)NC)cc(-c2ccc(O[C@H]3O[C@H](CO)[C@@H](O)[C@H](O)[C@@H]3O)cc2)c1 [ZFH-2056] |  |  | most significant reduction in IBCs; also recorded: reduced IBC formation | significant drop in bacterial load | not found to increase the efficacy of TMP-SMZ killing

From patent US8937167B2 (Washington University, priority 2009, dated 2015)
